Measurements: patent US10206937B2, “Boronic acid derivatives and therapeutic uses thereof” (Qpex Biopharma, Inc., priority 2014, dated 2019)

System: strains of Enterobacteriaceae producing various carbapenemases (class A, D and B; 169 strains)
Test: Meropenem or tebipenem potentiation by Compounds 97 or 62 (MIC)
Format: cell-based
In short: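 Meropenem and tebipenem MICs measured alone or with Compound 97 or 62 held at a fixed 8 μg/ml in the growth medium. Panel of 169 clinical Enterobacteriaceae isolates expressing class A, D and B carbapenemases, alone or with other beta-lactamases.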

Measured: Tebipenem MIC alone (T)

C[C@@H](O)[C@H]1C(=O)N2C(C(=O)O)=C(SC3CN(C4=NCCS4)C3)[C@H](C)[C@H]12 [T]
Z (MIC of greater than 10 μg/mL): CF1023 Citrobacter freundii SHV-12(2be), TEM-OSBL(2b), CTX-M-3, CMY-34, NDM-1 | EC1061 Escherichia coli NDM-1, CMY-6 | EC1069 Escherichia coli CTX-M-27, NDM-1 | EC1070 Escherichia coli TEM-OSBL(2b), CMY-42, NDM-5 | EC1072 Escherichia coli CTX-M-3, NDM-1 | ECL1055 Enterobacter cloacae KPC-3, TEM | ECL1057 Enterobacter cloacae NDM-1, TEM-1, CTX-M-15 | ECL1084 Enterobacter cloacae CTX-M-15, ACT-16, NDM-1 | ECL1085 Enterobacter cloacae SHV-31(2be), TEM-1(2b), CTX-M-15, NDM-1 | ECL1094 Enterobacter cloacae VIM-1 | ECL1095 Enterobacter cloacae SHV-12(2be), TEM-OSBL(2b), CMY-4, ACT-16, VIM-4, OXA-48(c) | ECL1096 Enterobacter cloacae CMY-4, VIM-4, OXA-48(c) | ECL1097 Enterobacter cloacae SHV-31(2be), TEM-OSBL(2b), CTX-M-15, ACT-31, NDM-1 | ECL1098 Enterobacter cloacae TEM-OSBL(2b), DHA-1, ACT-16, NDM-1 | KP1054 Klebsiella pneumoniae VIM-1, SHV-11 | KP1059 Klebsiella pneumoniae VIM-1, SHV-11 | KP1061 Klebsiella pneumoniae KPC-3, TEM-1, SHV-11 | KP1064 Klebsiella pneumoniae KPC-2, TEM-1, SHV-11 | KP1070 Klebsiella pneumoniae KPC-2, SHV-11, TEM-1 | KP1074 Klebsiella pneumoniae KPC-3, SHV-11, TEM | KP1081 Klebsiella pneumoniae NDM-1, TEM-1, SHV-11, CMY-6, CTX-M-15 | KP1158 Klebsiella pneumoniae KPC-2, VIM-1 | KP1161 Klebsiella pneumoniae NDM-1 | KP1162 Klebsiella pneumoniae SHV-1(2b), CTX-M-15, IMP-4 | KP1163 Klebsiella pneumoniae SHV-11(2b), MOX-1, KPC-2, VIM-1 | KP1164 Klebsiella pneumoniae SHV-12(2be), VIM-1 | KP1165 Klebsiella pneumoniae SHV-11(2b), CTX-M-15, VIM-27 | KP1166 Klebsiella pneumoniae SHV-5(2be), VIM-26 | KP1168 Klebsiella pneumoniae SHV-11(2b), CTX-M-15, VIM-27 | KP1170 Klebsiella pneumoniae SHV-11(2b), CTX-M-15, NDM-1 | KP1175 Klebsiella pneumoniae SHV-OSBL(2b), VIM-1 | KP1176 Klebsiella pneumoniae SHV-12(2be), TEM-OSBL(2b), CMY-13, KPC-2, VIM-1 | KP1177 Klebsiella pneumoniae SHV-OSBL(2b), TEM-OSBL(2b), CTX-M-15, NDM-1 | KP1178 Klebsiella pneumoniae SHV-OSBL(2b), TEM-OSBL(2b), CTX-M-15, NDM-1 | KP1179 Klebsiella pneumoniae SHV-12(2be), TEM-OSBL(2b), CTX-M-15, NDM-7 | KP1182 Klebsiella pneumoniae SHV-OSBL(2b), NDM-1, OXA-232(c) | KP1183 Klebsiella pneumoniae SHV-OSBL(2b), TEM-OSBL(2b), CTX-M-15, NDM-1 | KP1185 Klebsiella pneumoniae SHV-OSBL(2b), TEM-OSBL(2b), IMP-4 | KP1186 Klebsiella pneumoniae CTX-M-15, NDM-1 | KP1187 Klebsiella pneumoniae SHV-55(2be), TEM-OSBL(2b), CTX-M-15, NDM-1 | KP1188 Klebsiella pneumoniae SHV-OSBL(2b), CTX-M-15, NDM-1 | KP1189 Klebsiella pneumoniae TEM-OSBL(2b), CTX-M-15, CTX-M-27, NDM-1 | KP1190 Klebsiella pneumoniae KPC-4 VIM-4 TEM SHV | KP1191 Klebsiella pneumoniae KPC-2 | KP1192 Klebsiella pneumoniae KPC-2 TEM SHV | KP1193 Klebsiella pneumoniae KPC-3 TEM SHV | KP1194 Klebsiella pneumoniae KPC TEM SHV | KP1195 Klebsiella pneumoniae KPC TEM CTX-M-15 | KP1196 Klebsiella pneumoniae KPC TEM SHV CTX-M-15 CMY | KP1197 Klebsiella pneumoniae KPC-3, VIM-1 TEM SHV | KP1198 Klebsiella pneumoniae KPC-3, VIM-1 TEM SHV | KP1199 Klebsiella pneumoniae KPC-3 TEM SHV | KP1200 Klebsiella pneumoniae KPC-3 TEM SHV | KP1210 Klebsiella pneumoniae KPC SHV TEM | KP1211 Klebsiella pneumoniae KPC SHV TEM CTX-M-15 | KP1212 Klebsiella pneumoniae KPC SHV TEM CTX-M-15 | KP1213 Klebsiella pneumoniae KPC SHV TEM CTX-M-15 | KP1214 Klebsiella pneumoniae KPC SHV TEM + 1.9 kb | KP1215 Klebsiella pneumoniae KPC SHV | KP1216 Klebsiella pneumoniae KPC SHV TEM + 1.9 kb | KP1217 Klebsiella pneumoniae KPC SHV TEM + 1.9 kb | KP1218 Klebsiella pneumoniae KPC SHV TEM + 1.9 kb | KP1219 Klebsiella pneumoniae KPC SHV TEM + 1.9 kb | KP1220 Klebsiella pneumoniae KPC SHV TEM + 1.9 kb | KP1221 Klebsiella pneumoniae KPC SHV TEM + 1.9 kb | KP1222 Klebsiella pneumoniae KPC SHV TEM IMP | KP1223 Klebsiella pneumoniae KPC SHV TEM | KP1224 Klebsiella pneumoniae KPC SHV TEM | KP1225 Klebsiella pneumoniae KPC SHV TEM + 1.9 kb CMY | KP1226 Klebsiella pneumoniae KPC SHV TEM + 1.9 kb | KP1227 Klebsiella pneumoniae KPC SHV TEM CTX-M-15 | KP1229 Klebsiella pneumoniae OXA-48 TEM SHV CTX-M-15 | KP1232 Klebsiella pneumoniae OXA-48 TEM SHV CTX-M-15 | KP1234 Klebsiella pneumoniae OXA-48 TEM SHV CTX-M-15 | KP1236 Klebsiella pneumoniae OXA-48 TEM SHV CTX-M-15 | PM1024 Proteus mirabilis TEM-1(2b), CMY-16, VIM-1 | PM1027 Proteus mirabilis VIM-5 | SM1023 Serratia marcescens VIM-4
Y (MIC of 1 μg/mL to 10 μg/mL): CF1022 Citrobacter freundii SHV-12(2be), TEM-OSBL(2b), IMP-8 | ECL1045 Enterobacter cloacae VIM-1 | ECL1087 Enterobacter cloacae VIM-1 | ECL1090 Enterobacter cloacae TEM-1(2b), CTX-M-22, ACT-type, IMP-8 | ECL1092 Enterobacter cloacae TEM-OSBL(2b), ACT-32, VIM-1 | ECL1093 Enterobacter cloacae TEM-OSBL(2b), ACT-32, VIM-1 | KP1065 Klebsiella pneumoniae VIM-1, SHV-11 | KP1159 Klebsiella pneumoniae SHV-1(2b), CTX-M-15, IMP-4 | KP1160 Klebsiella pneumoniae SHV-28(2be), CTX-M-15, IMP-26 | KP1169 Klebsiella pneumoniae SHV-11(2b), VIM-1 | KP1172 Klebsiella pneumoniae SHV-31(2be), DHA-1, VIM-1 | KP1173 Klebsiella pneumoniae TEM-33(2br), CTX-M-15, IMP-1 | KP1174 Klebsiella pneumoniae CTX-M-14, IMP-1 | KP1180 Klebsiella pneumoniae SHV-OSBL(2b), TEM-OSBL(2b), CTX-M-15, DHA-1, IMP-26 | KP1181 Klebsiella pneumoniae SHV-OSBL(2b), CTX-M-15, IMP-26 | KP1184 Klebsiella pneumoniae SHV-OSBL(2b), IMP-1 | KP1228 Klebsiella pneumoniae OXA-48 TEM SHV CTX-M-15 | KP1230 Klebsiella pneumoniae OXA-48 TEM SHV CTX-M-15 | KP1231 Klebsiella pneumoniae OXA-48 TEM SHV CTX-M-15 | PM1025 Proteus mirabilis SHV-5(2be), TEM-OSBL(2b), VEB-2, VIM-1 | PM1026 Proteus mirabilis DHA-1, IMP-26 | SM1024 Serratia marcescens TEM-1(2b), IMP-47
